Experimental data published in US8609403B2, “Polynucleotide derived from novel hepatitis C virus strain and use thereof” (Tokyo Metropolitan Institute of Medical Science, priority 2009, dated 2013).

system: HCV-RMT strain; assay: Evaluation of anti-HCV agents in Huh7 cells maintaining the RMT recombinant virus (triple mutation), HCV amount by real-time PCR; type: cell-based, hepatitis C virus; settings: Huh7 cells 10 days after introduction of RMT-tri genome; agent added 16 hours after plating, total RNA purified 48 hours later; FIG. 8
Experimental: E1202G or the 3 acclimation mutations (E1202G, E1056V and A2199T) was/were introduced to pRMTx, and the obtained vectors were designated pRMTx-E1202G and pRMTx-tri, respectively. From pRMTx, pRMTx-E1202G and pRMTx-tri, viral genomic RNAs were prepared (RMT, RMT-E1202G and RMT-tri, respectively), and 30 μg each of the prepared genomic RNAs were introduced to Huh7 cells by electroporation. The cells were plated on a culture dish and subcultured 3 to 4 times per week, during which the cell were sampled. From the sampled cells, total RNA was purified by the AGPC method, and the copy number of the HCV genome per 1 μg of the total RNA was quantified according to a conventional method (Takeuchi et al., Gastroenterology, 1999) by reverse transcription real-time PCR using QuantiTect Multiplex PCR kit (manufactured by Qiagen). Daily changes in the copy number of the HCV genome in the cells to which RMT-RNA, RMT-E1202G-RNA and RMT-tri-RNA were respectively introduced are shown in FIG. 7.
Further, 10 days after the introduction of the genome, the cells in the state where the HCV genome was maintained were plated on a 96-well plate, and an agent was added thereto 16 hours later, followed by purification of total RNA 48 hours later from each well using ABI prizm 6100 and a purification kit (manufactured by Applied Biosystems). The HCV amount in the RNA, which was obtained by the above real-time PCR, and the total RNA amount quantified using an absorption spectrophotometer are shown in FIG. 8. As anti-HCV agents, an HCV polymerase inhibitor (MK0608), HCV protease inhibitor (BILN2061), IFN-α and cyclophilin inhibitor (cyclosporin A) were used.

Compound	growth inhibition capacities against HCV
COc1ccc2c(O[C@@H]3C[C@H]4C(=O)N[C@]5(C(=O)O)C[C@H]5/C=C\CCCCC[C@H](NC(=O)OC5CCCC5)C(=O)N4C3)cc(-c3csc(NC(C)C)n3)nc2c1 [BILN2061]	almost the same as those described in documents
C[C@@]1(O)[C@H](O)[C@@H](CO)O[C@H]1n1ccc2c(N)ncnc21 [MK0608]	almost the same as those described in documents
IFN-α	almost the same as those described in documents
